{"source": "patent US12637441B2", "about": "“Prodrugs of the tyrosine kinase inhibitor for treating cancer” (RISEN (SUZHOU) PHARMA TECH CO., LTD., priority 2019, dated 2026)", "origin": "cited, not measured here"}
{"smiles": "CNC(=O)c1ccccc1Sc1ccc2c(/C=C/c3ccccn3)n[nH]c2c1", "note": "[axitinib, N-methyl-2-((3-((1E)-2-(2-pyridinyl)ethenyl)-1H-indazol-6-yl)thio)benzamide]", "values": [{"measurement": "patients in whom the most common side effects occur", "value": "more than 20%"}]}
